Experiments:
[1] = system: erythropoietin, human liver cancer cell line Hep3B [エリスロポエチン産生ヒト肝臓癌細胞株Hep3B]; assay: Erythropoietin production in Hep3B cells in the presence of TNFα (ELISA); type: cell-based; settings: compound 3 μM with TNFα 220 μg/mL, 24 h, 20% O2; relative to DMSO; Fig. 2
[2] = system: erythropoietin [エリスロポエチン]; settings: reported in Patent Literature 2; cited from earlier work
[3] = system: Leber disease patient-derived fibroblasts [Leber病患者由来線維芽細胞]; assay: Suppression of cytotoxicity in BSO-treated Leber disease patient fibroblasts: released LDH activity (Cytotoxicity LDH Assay Kit-WST); type: cell-based; settings: BSO 100 μM 24 h, then compound (0.1, 0.3, 1, 3, 10 μM) 48 h, n=4; LDH release; Fig. 1C
[4] = system: Leber disease patient-derived fibroblasts [Leber病患者由来線維芽細胞]; assay: Suppression of oxidative-stress (BSO) induced cell death of Leber disease patient fibroblasts: cell viability (MTT assay, Cell Counting Kit-8); type: cell-based; settings: for minimal effective concentration: Fibroblast, BSO 100 μM 24 h, then compound (0.1, 0.3, 1, 3, 10 μM) 48 h, n=4, Fig. 1B, read-out: concentration at which the decrease in cell viability is suppressed
[5] = system: mitochondrial disease [ミトコンドリア病]; settings: reported in Patent Literature 2; cited from earlier work
[6] = system: mitochondrial encephalomyopathy patients [ミトコンドリア脳筋症患者]; settings: cited from earlier work

**Q.** With O=C(CC(C(=O)O)c1c[nH]c2cc(F)ccc12)c1ccc(F)cc1F (centres unmarked) [本件化合物#1, 4−(2,4−ジフルオロフェニル)−2−(6−フルオロ−1H−インドール−3−イル)−4−オキソブタン酸] as the molecule, how does the erythropoietin expression level [1] read?
**A.** Its erythropoietin expression level is “増加する”.

**Q.** For O=C(CC(C(=O)O)c1c[nH]c2ccccc12)c1ccc(F)cc1 (centres unmarked) [比較例化合物#4, 4−(4−フルオロフェニル)−2−(1H−インドール−3−イル)−4−オキソ−ブタン酸], which “effect of enhancing erythropoietin expression / promoting erythropoietin production” value [2] is on record?
**A.** The value was “エリスロポエチン産生の促進効果”.

**Q.** And the “concentration at which the cytotoxicity level is lowered” value [3]?
**A.** Its value is no less than 10 µM.

**Q.** And the minimal effective concentration [4]?
**A.** The minimal effective concentration was no less than 10 µM.

**Q.** And the “therapeutic effect on mitochondrial disease” value [5]?
**A.** The value was “ミトコンドリア病の治療効果”.

**Q.** Which erythropoietin expression level [1] does the source give for O=C(CC(C(=O)O)c1c[nH]c2cccc(Cl)c12)c1ccc(F)cc1F (centres unmarked) [本件化合物#5, 2−(4−クロロ−1H−インドール−3−イル)−4−(2,4−ジフルオロフェニル)−4−オキソブタン酸] here?
**A.** Its erythropoietin expression level is “増加する”.

**Q.** For Cc1ccc2[nH]cc(C(CC(=O)c3ccc(F)cc3F)C(=O)O)c2c1 (centres unmarked) [本件化合物#6, 4−(2,4−ジフルオロフェニル)−2−(5−メチル−1H−インドール−3−イル)−4−オキソブタン酸], which erythropoietin expression level [1] is on record?
**A.** Its erythropoietin expression level is “増加する”.

**Q.** And the “concentration at which the cytotoxicity level is lowered” value [3]?
**A.** Its value is no less than 1 µM.

**Q.** And the minimal effective concentration [4]?
**A.** Its minimal effective concentration is no less than 1 µM.

**Q.** Which results are given for O=C(CC(C(=O)O)c1c[nH]c2ccccc12)c1ccc(F)cc1F (centres unmarked) [4−(2,4−ジフルオロフェニル)−2−(1H−インドール−3−イル)−4−オキソ−ブタン酸]?
**A.** effect of enhancing erythropoietin expression / promoting erythropoietin production [2]: エリスロポエチン発現増強効果; therapeutic effect on mitochondrial disease [5]: ミトコンドリア病の治療効果

**Q.** With CC1=NN(c2ccccc2)C(=O)C1 [エダラボン, 3−メチル−1−フェニル−2−ピラゾリン−5−オン] as the molecule, how does the “effect of stopping enlargement of infarct” value [6] read?
**A.** The value was “梗塞の拡大を停止する効果”.

**Q.** What about the “effect of suppressing edema” value [6] of the same molecule?
**A.** Its value is “浮腫を抑制する効果”.

**Q.** Which cell viability ([4]; BSO 100 μM (glutathione synthesis inhibitor) alone, Fig. 1A) does the source give for CCCCS(=N)(=O)CC[C@H](N)C(=O)O (stereo partly drawn) [BSO, L-Buthionine sulphoximine] here?
**A.** Its cell viability is “細胞生存率が低下する”.
